Experimental data from patent US10975384B2, “PYL9 and uses thereof” (PURDUE RESEARCH FOUNDATION, priority 2015, dated 2021).

Key:
[1] = system: Arabidopsis plants; experiment: Osmotic potential measurements after ABA spray; type: in vivo; conditions: developing bud tissue, 20 μM ABA spray, 2 d
Procedure: Plant samples were collected in a plastic centrifuge tube filter (without membrane; Corning Costar Spin-X) and then, quick-frozen in liquid nitrogen. After thawing, the sap was collected by centrifuging at 16,000×g for 4 min to remove insoluble material. A 10-μL volume of cell sap was measured using a vapor pressure osmometer (Model 5200; Wescor). Solute concentration was converted to osmotic potential (Ψπ) using the van't Hoff law: Ψπ=−RTc, where c is the molar solute concentration (osmolality; moles kilogram-1), R is the gas constant (0.08314 L Bar mol−1 K−1), and T is the temperature in Kelvin.

[2] = system: ORE1 and AtNAP expression; experiment: Quantitative RT-PCR of ORE1 and AtNAP in mature leaves after ABA; type: in vivo, Arabidopsis; conditions: 20 μM ABA spray
Procedure: Northern blot and real-time PCR were performed as reported (18). For Northern blot analysis, the probe was labeled with the PCR-DIG Probe Synthesis Kit (Roche). RD29A-F (SEQ ID NO. 83) and PYL9-R (SEQ ID NO. 84) were used for the PCR. For real-time PCR, reactions were performed with iQ SYBR Green Supermix (BioRad). The primers used include SEQ ID NOs. 71 to 80. Quantitative RT-PCR was conducted on mature leaves of 4-wk-old Arabidopsis plants that were growing in soil and sprayed with 20 μM ABA.

[3] = system: pRD29A::PYL9 transgenic plants; experiment: Drought resistance of pRD29A::PYL9 transgenic Arabidopsis with ABA treatment; type: in vivo; conditions: 10 μM ABA applied once after water withheld for 12 d, plants after flowering
Procedure: Soil water content percentage during drought treatment in Arabidopsis was measured as described (27). We used 591-mL pots (48-7214; 04.00 SQ TL TW; Myers Industries) with 130 g (˜62 g oven dry weight) Fafard Super-Fine Germinating Mix Soil (Sungro Horticultures) per pot. After being saturated with water, the total weight of the wet soil was ˜440 g per pot. Pots were covered with plastic film to reduce water loss from soil surface. Three-week-old plants (four plants per pot) were subjected to drought stress by withholding water. Plants were sprayed with 2 mL 10 μM ABA plus 0.2% Tween-20 per pot after water was withheld for 12 d. Soil water content percentage was computed as total weight minus dry soil weight divided by water weight before drought according to the work (27). For drought treatment on rice, we measured the relative water content using the Soil Temperature/Moisture Meter L99-TWS-1 (Shanghai Fotel Precise Instrument Co., Ltd) following the work (40). Before drought treatment, the mixed vermiculite and sandy soil (Zhongfang Horticulture Co.) for rice was saturated with water, and the relative soil water content before drought was set as 100%. Rice plants at the four-leaf stage were subjected to drought by withholding water for 14 d, and the relative soil water content after the drought treatment was ˜20%.

[4] = system: SAG12-LUC expression; experiment: SAG12-LUC transient expression assay in Arabidopsis protoplasts; type: cell-based; conditions: snrk2.2/3/6 triple-mutant protoplasts, ABA treatment
Procedure: Assays for transient expression in protoplasts were performed as described (18). All steps were performed at room temperature. SAG12-LUC and ORE1L-LUC were used as the senescence-responsive reporters, and ZmUBQ-GUS was used as the internal control. After transfection, protoplasts were incubated in washing and incubation solution without ABA or with 5 μM ABA under light for 16 h.

For `CC1=CC(=O)CC(C)(C)[C@@]1(O)/C=C/C(C)=C\C(=O)O` [ABA, abscisic acid], the osmotic potential [1] was “reduced”, the “expression of ORE1 and AtNAP” value [2] was “induced” and the drought resistance [3] was “significantly increased”. For the same molecule, the SAG12-LUC expression [4] was “not enhanced”.
